Measured values published in publication PMC5642273 (Biochemistry, 2017).
Like-named read-outs stand apart in the source and are kept apart here.

Columns and labels:
[1] = target: T1, (+)-limonene synthase [(+)-LS] (Citrus sinensis, UniProt A0A1C9J6A7); assay: X-ray crystal structure; assay type: biochemical
[2] = target: T1, (+)-limonene synthase [(+)-LS]; assay: X-ray crystal structure; assay type: biochemical; remark: listed apart in the source

T1 sequence (A0A1C9J6A7 53-607): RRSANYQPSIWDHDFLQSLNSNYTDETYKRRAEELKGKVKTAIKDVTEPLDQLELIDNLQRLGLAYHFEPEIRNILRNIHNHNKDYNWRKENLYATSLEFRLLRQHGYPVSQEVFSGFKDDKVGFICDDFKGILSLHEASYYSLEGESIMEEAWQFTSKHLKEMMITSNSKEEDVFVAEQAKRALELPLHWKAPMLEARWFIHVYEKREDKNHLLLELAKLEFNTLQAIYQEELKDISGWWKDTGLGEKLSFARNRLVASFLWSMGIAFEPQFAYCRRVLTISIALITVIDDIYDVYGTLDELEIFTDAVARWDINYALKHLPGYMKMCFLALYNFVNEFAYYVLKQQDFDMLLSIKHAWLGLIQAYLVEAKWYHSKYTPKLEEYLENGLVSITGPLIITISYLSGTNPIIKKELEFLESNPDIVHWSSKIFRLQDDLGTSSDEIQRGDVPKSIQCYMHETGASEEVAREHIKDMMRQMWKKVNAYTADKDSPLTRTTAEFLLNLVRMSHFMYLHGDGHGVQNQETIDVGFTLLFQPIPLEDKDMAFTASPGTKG

Row | Structure (SMILES) | Ki [1] | Ki [2]
1 | CC(C)=CCC/C(C)=C(\F)COP(=O)(O)OP(=O)(O)O [FGPP, 2-fluorogeranyl diphosphate] | 2.4 ± 0.5 µM | –
2 | CC(C)=CCC/C(C)=C(/F)COP(=O)(O)OP(=O)(O)O [FNPP, 2-fluoroneryl diphosphate] | – | 39.5 ± 5.2 µM
